Source: US20130072509A1, “PTEROSTILBENE AND STATIN COMBINATION FOR TREATMENT OF METABOLIC DISEASE, CARDIOVASCULAR DISEASE, AND INFLAMMATION” (ChromaDex Inc., priority 2011, published 2013)
Where two headings read alike, the source gives them in different places.

Tests used:
[1] = Human clinical trial in dyslipidemia patients: lipids and blood pressure; type: in vivo
Excerpt: The following is a general study design for human clinical trial to assess efficacy of pterostilbene, in combination with a statin, to lower cholesterol and/or lower blood pressure, among other measured endpoints including markers for oxidative stress. The study type is interventional: a randomized, double-blind, placebo controlled study. Endpoint Classification: Safety/Efficacy Study.
The purpose of this study is to evaluate whether pterostilbene alone, or a combination of pterostilbene and a statin compound, will help control cholesterol and blood pressure, as well as improve markers for oxidative stress in patients with dyslipidemia meeting inclusion criteria. The investigators will assess the safety of pterostilbene in these patients. Further, 33% of all subjects, spread randomly across all study groups, will be undergoing concurrent statin therapy but still satisfy the inclusion criteria of a previous TC≧200 mg/dL, and/or a LDL-C≧100 mg/dL.
Sixty subjects, divided into three groups: 20 per study group. Ages eligible for study: 18 to 88 years, both genders. No healthy volunteers accepted. Inclusion criteria: patients ≧18 years of age with a previous TC≧200 mg/dL, and/or a LDL-C≧100 mg/dL on either no therapy or stable therapy. Any concomitant cholesterol medication must be at a stable dose for at least 2 months prior to baseline laboratory and not listed in the exclusion criteria. Exclusion criteria: patients with significant hepatic, renal or gastrointestinal tract disease, receiving thiazolidinediones or fibric acid derivatives, current overt cardiovascular disease, women of reproductive potential not receiving birth control, and pregnant/nursing women.
Evaluation Criteria for clinical measurement: 1. Primary outcome measures: lipid laboratory markers (i.e., change in baseline TC, LDL-C, triglycerides (TG), HDL-C, non-HDL-C); 2. Secondary outcome measures: blood pressure (i.e., change in baseline systolic blood pressure and/or diastolic blood pressure); basic metabolic panel; AST (aspartate aminotransferase); ALT (alanine aminotransferase); and/or oxidative stress markers (i.e., change in baseline urine-derived markers of stress (e.g., isoprostanes: iPF2-Alpha-III/creat; iPF2-Alpha-VI/creat; 2,3 Dinor-iPF2-Alpha-III/creat)).
Subjects will be divided into three groups or arms: (1) high dose pterostilbene, 125 mg twice daily by mouth for 6 to 8 weeks; (2) low dose pterostilbene, 50 mg twice daily by mouth for 6 to 8 weeks; (3) matching placebo taken twice daily by mouth for 6 to 8 weeks; either one hour before or two hours after a meal. Further, as stated above, 33% of all subjects, spread randomly across all study groups, will be undergoing concurrent statin therapy. […]

[2] = target: T1, PPAR-alpha (Rattus norvegicus, UniProt P37230); conditions: cited from earlier work
T1 construct: endogenous in cells; host or cells: H4IIEC3 rat liver cells
T1 sequence (P37230 1-468): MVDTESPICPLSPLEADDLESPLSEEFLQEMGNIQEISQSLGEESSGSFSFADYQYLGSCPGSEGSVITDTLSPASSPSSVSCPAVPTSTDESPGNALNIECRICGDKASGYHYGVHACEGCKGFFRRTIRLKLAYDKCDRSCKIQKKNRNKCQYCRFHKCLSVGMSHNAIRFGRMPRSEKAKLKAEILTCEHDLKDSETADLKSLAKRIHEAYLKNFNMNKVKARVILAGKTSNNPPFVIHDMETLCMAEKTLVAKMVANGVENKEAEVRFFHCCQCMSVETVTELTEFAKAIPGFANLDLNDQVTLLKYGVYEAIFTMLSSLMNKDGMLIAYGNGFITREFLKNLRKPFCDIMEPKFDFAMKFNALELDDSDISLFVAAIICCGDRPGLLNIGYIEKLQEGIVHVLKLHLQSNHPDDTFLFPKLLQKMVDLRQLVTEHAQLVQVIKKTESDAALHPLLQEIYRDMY

[3] = cited from earlier work; for bioavailability: in vivo
[4] = mice, 28-day subacute; 160 pound human equivalent doses of approximately 125 mg/day, 1.25 g/day and 12.5 g/day; cited from earlier work
[5] = target: T2, CYP1A1 (Homo sapiens, UniProt P04798); conditions: human recombinant; cited from earlier work
T2 sequence (P04798 1-512): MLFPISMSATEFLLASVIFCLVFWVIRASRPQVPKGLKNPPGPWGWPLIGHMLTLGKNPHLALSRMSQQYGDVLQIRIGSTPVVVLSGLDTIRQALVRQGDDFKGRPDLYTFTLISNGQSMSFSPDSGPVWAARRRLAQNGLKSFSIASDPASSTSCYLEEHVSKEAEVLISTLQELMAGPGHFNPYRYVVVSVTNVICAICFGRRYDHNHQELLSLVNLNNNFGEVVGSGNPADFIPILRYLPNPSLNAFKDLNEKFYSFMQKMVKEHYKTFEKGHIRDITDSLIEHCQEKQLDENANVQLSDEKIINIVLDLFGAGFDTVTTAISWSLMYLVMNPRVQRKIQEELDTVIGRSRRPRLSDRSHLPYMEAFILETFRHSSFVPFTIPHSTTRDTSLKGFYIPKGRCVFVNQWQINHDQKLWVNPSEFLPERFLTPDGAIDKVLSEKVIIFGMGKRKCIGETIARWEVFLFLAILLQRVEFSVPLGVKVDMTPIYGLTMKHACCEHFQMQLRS

[6] = target: T3, CYP1B1 (Homo sapiens, UniProt Q16678); conditions: human recombinant; cited from earlier work
T3 sequence (Q16678 1-543): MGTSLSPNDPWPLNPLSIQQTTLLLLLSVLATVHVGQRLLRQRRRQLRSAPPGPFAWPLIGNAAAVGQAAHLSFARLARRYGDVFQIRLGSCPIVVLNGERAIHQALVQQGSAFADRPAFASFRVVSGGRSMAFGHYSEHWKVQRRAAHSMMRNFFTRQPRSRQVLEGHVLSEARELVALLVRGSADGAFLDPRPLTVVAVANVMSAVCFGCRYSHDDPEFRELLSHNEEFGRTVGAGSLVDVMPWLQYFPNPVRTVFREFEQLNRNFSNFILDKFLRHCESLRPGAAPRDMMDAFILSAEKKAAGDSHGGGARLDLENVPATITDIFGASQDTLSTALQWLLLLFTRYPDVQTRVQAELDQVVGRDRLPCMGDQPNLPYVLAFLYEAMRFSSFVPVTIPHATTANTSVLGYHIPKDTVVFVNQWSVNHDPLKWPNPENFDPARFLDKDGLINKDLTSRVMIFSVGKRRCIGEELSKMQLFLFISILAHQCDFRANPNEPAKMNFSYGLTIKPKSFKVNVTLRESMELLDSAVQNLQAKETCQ

[7] = tested on: rat smooth muscle cells; conditions: in vitro; cited from earlier work
[8] = tested on: H4IIEC3 rat liver cells; conditions: 100 μM; cited from earlier work
[9] = after 8 weeks, oral twice daily, pterostilbene alone
[10] = 100 μM, H4IIEC3 rat liver cells

Compound	change in LDL-C level [1, 9]	change in TC level [1, 9]	reduction in diastolic blood pressure ([1]; high dose (250 mg daily), including patients receiving a statin, p<0.001) [mmHg]	reduction in systolic blood pressure ([1]; high dose (250 mg daily), including patients receiving a statin, p<0.01) [mmHg]	PPAR-alpha activation over the control [2, 10] [fold]	PPAR-alpha activation relative to 100 μM of ciprofibrate [2, 10] [fold]	PPAR-alpha activation over the control ([2]; 300 μM, H4IIEC3 rat liver cells) [fold]	PPAR-alpha activation (in words) ([2]; study of a group of similar stilbenes, in a manner similar to ciprofibrate)	half life t1/2 in blood [3] [min]	bioavailability [3]	local or systemic toxicity [4]	CYP1A1 inhibition [5]	CYP1B1 inhibition [6]	proliferation of rat smooth muscle cells [7]	Toxicity to cells [8]
COc1cc(/C=C/c2ccc(O)cc2)cc(OC)c1 [pterostilbene, 3,5-dimethoxy-4′-hydroxy-trans-stilbene]	slight increases	slight increases	−7.3	−7.8	8	~2	14	activated PPAR-alpha	74 to 105	orally bioavailable	no local or systemic toxicity	shown to inhibit	shown to inhibit	inhibit the proliferation	–
Oc1ccc(C=Cc2cc(O)cc(O)c2)cc1 [resveratrol, reference compound]	–	–	–	–	–	–	–	–	10 to 14	poor bioavailability	–	–	–	–	toxic to cells
